Article PMC7935272 (PLoS Pathogens, 2021)
Values joined by “and” are separate entries in the source; they are usually repeats but may differ in a detail not shown here. Equal entries are not always repeated. “Also recorded” adds a separate entry of the source. Where two headings read alike, the source gives them in different places.

Assays:
Vero-hSLAM cells = experiment: in vitro; type: cell-based, African green monkey
Experimental: (§1) To determine cytotoxic concentrations Vero-hSLAM cells were plated in 96 well plates (1.1 × 10^4 per well) and incubated with three-fold serial dilutions of compound. After incubation of uninfected cells for 72 hours, PrestoBlue substrate (Invitrogen) was added to quantify cell metabolic activity as described. Signal was measured using a BioTek H1 synergy multimode microplate reader. Where applicable, cytotoxic concentrations (CC50) were calculated based on four-parameter variable slope regression modeling.

in vitro = type: cell-based, African green monkey; conditions: African green monkey; Vero-hSLAM, 72 hours
Experimental: as §1

RSV L = RSV L (Human respiratory syncytial virus A, UniProt P28887); experiment: Biolayer interferometry, RSV L specificity control; type: binding; conditions: for steady-state BLI sensor response: S7 C
MeV L = molecular target: T1, MeV L (Measles virus, UniProt P12576); experiment: MeV minigenome dose-response assay, L WT; type: cell-based; conditions: 40 h, ERDRP-0519 0.005 µM; L WT; Figure 1D; read-out: minigenome activity, individual repeat
T1 construct: expressed in transfected cells; host or cells: BSR-T7/5

[1] = cited from earlier work
MeV L1708 = MeV L1708 (Measles virus, UniProt Q9WMB3); experiment: Biolayer interferometry, MeV L1708 WT; type: binding; conditions: for BLI sensorgram signal: time r4=0 s, r5=0.2 s, r6=0.4 s, r7=0.6 s; for S5 E BLI response versus compound conc. / S5 F BLI response versus compound conc.: L1708 wt; for S5 B BLI sensorgram response / S5 C BLI sensorgram response: MeV L1708 WT
Sequence of MeV L1708 (Q9WMB3 1-1708): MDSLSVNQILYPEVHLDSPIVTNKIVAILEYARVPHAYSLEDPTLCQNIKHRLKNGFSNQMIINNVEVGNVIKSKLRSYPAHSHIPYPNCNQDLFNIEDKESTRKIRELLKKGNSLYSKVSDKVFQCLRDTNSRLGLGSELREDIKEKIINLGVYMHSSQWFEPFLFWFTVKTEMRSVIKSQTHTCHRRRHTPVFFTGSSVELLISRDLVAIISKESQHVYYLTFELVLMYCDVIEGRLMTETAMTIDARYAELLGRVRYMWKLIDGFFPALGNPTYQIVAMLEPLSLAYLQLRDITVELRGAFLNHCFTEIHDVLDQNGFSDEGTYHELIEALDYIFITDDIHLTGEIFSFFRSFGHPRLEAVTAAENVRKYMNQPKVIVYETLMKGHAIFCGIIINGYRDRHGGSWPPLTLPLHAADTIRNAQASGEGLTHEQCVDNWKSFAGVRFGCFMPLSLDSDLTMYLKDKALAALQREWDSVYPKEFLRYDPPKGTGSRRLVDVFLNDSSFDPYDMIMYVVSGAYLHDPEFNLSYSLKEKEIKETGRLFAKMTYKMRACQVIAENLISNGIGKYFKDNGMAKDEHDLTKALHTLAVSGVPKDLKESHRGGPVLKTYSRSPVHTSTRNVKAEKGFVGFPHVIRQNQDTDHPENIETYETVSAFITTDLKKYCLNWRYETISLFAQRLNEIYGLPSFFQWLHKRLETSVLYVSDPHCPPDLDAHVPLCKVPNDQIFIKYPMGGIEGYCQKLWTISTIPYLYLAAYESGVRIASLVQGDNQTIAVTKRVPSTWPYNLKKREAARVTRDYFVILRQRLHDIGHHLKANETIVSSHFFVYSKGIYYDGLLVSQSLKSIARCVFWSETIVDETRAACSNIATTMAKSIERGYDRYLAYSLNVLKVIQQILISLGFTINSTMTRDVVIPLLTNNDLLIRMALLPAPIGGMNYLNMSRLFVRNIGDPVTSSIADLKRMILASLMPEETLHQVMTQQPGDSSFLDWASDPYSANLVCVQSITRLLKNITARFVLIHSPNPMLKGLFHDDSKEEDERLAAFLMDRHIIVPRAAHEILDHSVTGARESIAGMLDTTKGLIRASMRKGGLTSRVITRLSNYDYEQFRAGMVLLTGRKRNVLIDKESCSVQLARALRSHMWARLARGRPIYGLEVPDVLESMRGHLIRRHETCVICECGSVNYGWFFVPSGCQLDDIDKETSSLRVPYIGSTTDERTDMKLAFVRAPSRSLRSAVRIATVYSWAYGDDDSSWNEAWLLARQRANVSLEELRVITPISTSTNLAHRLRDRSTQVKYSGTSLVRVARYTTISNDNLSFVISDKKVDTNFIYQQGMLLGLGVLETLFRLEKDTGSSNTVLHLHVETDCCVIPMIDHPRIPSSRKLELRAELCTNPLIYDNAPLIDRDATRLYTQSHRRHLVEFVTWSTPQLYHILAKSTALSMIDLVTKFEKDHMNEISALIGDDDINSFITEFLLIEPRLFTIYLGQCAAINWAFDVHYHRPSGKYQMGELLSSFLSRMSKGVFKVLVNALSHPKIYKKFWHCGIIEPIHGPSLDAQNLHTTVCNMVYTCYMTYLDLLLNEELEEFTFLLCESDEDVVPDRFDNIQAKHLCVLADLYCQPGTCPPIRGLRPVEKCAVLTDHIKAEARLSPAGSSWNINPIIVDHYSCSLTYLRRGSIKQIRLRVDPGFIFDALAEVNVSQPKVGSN
Sequence of MeV L1708 (Q9WMB4 whole entry partner): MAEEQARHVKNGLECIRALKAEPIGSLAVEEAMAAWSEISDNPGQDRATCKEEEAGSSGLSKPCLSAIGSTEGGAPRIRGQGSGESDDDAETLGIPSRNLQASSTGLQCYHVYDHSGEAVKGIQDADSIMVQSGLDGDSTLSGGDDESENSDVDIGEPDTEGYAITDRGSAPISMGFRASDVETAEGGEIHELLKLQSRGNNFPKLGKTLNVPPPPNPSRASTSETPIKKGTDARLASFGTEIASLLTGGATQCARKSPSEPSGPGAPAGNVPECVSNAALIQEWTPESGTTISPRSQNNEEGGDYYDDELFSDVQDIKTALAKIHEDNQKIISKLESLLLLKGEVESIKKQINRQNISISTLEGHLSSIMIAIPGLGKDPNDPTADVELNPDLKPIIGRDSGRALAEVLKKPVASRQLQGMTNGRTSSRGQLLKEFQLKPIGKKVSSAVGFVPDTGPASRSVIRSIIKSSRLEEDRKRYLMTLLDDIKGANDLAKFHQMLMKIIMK

Sequence of RSV L (P03421 whole entry): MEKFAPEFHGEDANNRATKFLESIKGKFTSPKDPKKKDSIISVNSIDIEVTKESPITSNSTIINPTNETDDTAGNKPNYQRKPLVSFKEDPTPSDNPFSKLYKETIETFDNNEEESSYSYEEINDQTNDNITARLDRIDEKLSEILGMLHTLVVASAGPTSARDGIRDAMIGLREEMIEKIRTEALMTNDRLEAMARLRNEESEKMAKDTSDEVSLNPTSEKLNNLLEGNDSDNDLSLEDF
Sequence of RSV L (P28887 whole entry): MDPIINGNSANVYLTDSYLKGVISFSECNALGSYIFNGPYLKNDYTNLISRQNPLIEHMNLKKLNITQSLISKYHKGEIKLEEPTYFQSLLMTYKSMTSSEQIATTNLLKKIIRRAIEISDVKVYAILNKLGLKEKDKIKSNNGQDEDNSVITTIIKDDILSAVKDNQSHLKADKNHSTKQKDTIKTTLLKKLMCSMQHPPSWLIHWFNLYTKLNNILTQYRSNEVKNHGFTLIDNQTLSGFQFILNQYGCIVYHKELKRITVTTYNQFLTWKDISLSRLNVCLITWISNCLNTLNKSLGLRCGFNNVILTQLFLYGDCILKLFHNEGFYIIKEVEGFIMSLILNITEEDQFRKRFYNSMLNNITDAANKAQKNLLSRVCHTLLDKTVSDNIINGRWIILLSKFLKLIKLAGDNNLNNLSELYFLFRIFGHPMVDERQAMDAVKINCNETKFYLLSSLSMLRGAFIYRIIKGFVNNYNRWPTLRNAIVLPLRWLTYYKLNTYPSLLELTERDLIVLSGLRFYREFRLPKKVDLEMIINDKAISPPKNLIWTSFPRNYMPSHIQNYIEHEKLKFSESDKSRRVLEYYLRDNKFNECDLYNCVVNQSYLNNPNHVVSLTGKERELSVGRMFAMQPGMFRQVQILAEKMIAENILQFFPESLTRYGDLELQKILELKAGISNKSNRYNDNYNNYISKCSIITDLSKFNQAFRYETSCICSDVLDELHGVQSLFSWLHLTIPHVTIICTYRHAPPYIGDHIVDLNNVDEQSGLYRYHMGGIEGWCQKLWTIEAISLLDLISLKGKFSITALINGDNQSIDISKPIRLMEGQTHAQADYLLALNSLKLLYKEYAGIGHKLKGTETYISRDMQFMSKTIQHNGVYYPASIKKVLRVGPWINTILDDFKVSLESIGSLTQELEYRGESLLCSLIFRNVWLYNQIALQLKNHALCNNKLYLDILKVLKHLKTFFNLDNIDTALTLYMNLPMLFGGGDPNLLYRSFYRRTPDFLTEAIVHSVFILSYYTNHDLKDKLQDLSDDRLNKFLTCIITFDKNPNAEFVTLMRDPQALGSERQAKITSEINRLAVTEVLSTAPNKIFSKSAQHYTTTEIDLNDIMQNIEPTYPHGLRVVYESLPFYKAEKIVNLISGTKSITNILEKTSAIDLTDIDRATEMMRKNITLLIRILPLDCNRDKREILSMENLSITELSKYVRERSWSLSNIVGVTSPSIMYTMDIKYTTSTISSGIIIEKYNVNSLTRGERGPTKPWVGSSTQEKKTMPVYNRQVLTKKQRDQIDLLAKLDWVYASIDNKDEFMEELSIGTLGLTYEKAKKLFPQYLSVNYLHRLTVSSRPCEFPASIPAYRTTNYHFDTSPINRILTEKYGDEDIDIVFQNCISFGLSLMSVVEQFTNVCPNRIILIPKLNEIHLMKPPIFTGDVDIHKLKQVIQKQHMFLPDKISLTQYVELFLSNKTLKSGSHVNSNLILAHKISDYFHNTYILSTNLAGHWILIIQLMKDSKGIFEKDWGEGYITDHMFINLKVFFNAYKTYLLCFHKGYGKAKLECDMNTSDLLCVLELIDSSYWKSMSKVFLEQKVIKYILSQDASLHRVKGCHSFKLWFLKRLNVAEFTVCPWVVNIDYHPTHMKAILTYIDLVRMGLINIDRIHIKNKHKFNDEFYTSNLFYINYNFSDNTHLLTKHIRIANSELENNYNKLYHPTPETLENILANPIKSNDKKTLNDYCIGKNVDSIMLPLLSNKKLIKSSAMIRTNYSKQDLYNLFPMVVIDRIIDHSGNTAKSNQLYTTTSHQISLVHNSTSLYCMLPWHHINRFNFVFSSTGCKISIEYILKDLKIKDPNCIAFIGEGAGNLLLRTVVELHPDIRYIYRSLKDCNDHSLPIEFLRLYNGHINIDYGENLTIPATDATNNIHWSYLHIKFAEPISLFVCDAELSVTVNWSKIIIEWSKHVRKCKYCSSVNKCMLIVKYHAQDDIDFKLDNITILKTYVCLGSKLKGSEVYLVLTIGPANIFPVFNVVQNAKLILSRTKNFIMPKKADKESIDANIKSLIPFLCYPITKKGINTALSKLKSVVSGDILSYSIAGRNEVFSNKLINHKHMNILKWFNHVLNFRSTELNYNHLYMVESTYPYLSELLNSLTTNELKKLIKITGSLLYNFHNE

Structure (SMILES): Cn1nc(C(F)(F)F)cc1C(=O)Nc1ccc(S(=O)(=O)N2CCCC[C@H]2CCN2CCOCC2)cc1 [ERDRP-0519, S(=O)(=O)(N1[C@H](CCN2CCOCC2)CCCC1)c1ccc(NC(=O)c2n(C)nc(C(F)(F)F)c2)cc1]
- Cytotoxicity, normalized metabolic activity (Figure 5B) (Vero-hSLAM cells; cpd concentration 0.045725): 92.6189 and 91.5198 and 89.1889
- Cytotoxicity, normalized metabolic activity (Figure 5B) (Vero-hSLAM cells; cpd concentration 0.137174): 93.2443 and 94.6845 and 97.0722
- Cytotoxicity, normalized metabolic activity (Figure 5B) (Vero-hSLAM cells; cpd concentration 0.411523): 98.6261 and 97.1101 and 101.469
- Cytotoxicity, normalized metabolic activity (Figure 5B) (Vero-hSLAM cells; cpd concentration 1.23457): 100.919 and 98.2092 and 94.5139
- Cytotoxicity, normalized metabolic activity (Figure 5B) (Vero-hSLAM cells; cpd concentration 3.7037): 98.683 and 65.7665 and 99.5736
- Cytotoxicity, normalized metabolic activity (Figure 5B) (Vero-hSLAM cells; cpd concentration 11.1111): 96.5984 and 96.9017 and 98.6451
- Cytotoxicity, normalized metabolic activity (Figure 5B) (Vero-hSLAM cells; cpd concentration 33.3333): 105.751 and 104.652 and 106.244
- Cytotoxicity, normalized metabolic activity (Figure 5B) (Vero-hSLAM cells; cpd concentration 100): 82.5753 and 96.0868 and 96.0678
- CC50 (in vitro): > 100 µM
- binding to RSV polymerase (RSV L; BLI specificity control): No appreciable binding; also recorded: no binding was detected
- steady-state BLI sensor response (RSV L; 0.003 uM): 0.004459
- steady-state BLI sensor response (RSV L; 0.009 uM): 0.00801
- steady-state BLI sensor response (RSV L; 0.027 uM): 0.008695
- steady-state BLI sensor response (RSV L; 0.24 uM): 0.01534
- steady-state BLI sensor response (RSV L; 0.74 uM): 0.01342
- steady-state BLI sensor response (RSV L; 2.22 uM): 0.007742
- steady-state BLI sensor response (RSV L; 6.67 uM): 0.01053
- steady-state BLI sensor response (RSV L; 20 uM): 0.00593
- remaining activity at 0.005 µM (MeV L): 97%
- CC50 [1]: 75 µM
- BLI sensorgram signal (MeV L1708; 0.027 µM, 0 s after start): 0.003933
- BLI sensorgram signal (MeV L1708; 0.027 µM, 0.2 s after start): 0.003451
- BLI sensorgram signal (MeV L1708; 0.027 µM, 0.4 s after start): 0.003441
- BLI sensorgram signal (MeV L1708; 0.027 µM, 0.6 s after start): 0.002991
- BLI sensorgram signal (MeV L1708; 0.08 µM, 0 s after start): 0.004633
- BLI sensorgram signal (MeV L1708; 0.08 µM, 0.2 s after start): 0.004988
- BLI sensorgram signal (MeV L1708; 0.08 µM, 0.4 s after start): 0.005321
- BLI sensorgram signal (MeV L1708; 0.08 µM, 0.6 s after start): 0.005054
- BLI sensorgram signal (MeV L1708; 0.74 µM, 0 s after start): 0.0125
- BLI sensorgram signal (MeV L1708; 0.74 µM, 0.2 s after start): 0.01183
- BLI sensorgram signal (MeV L1708; 0.74 µM, 0.4 s after start): 0.01188
- BLI sensorgram signal (MeV L1708; 0.74 µM, 0.6 s after start): 0.0114
- BLI sensorgram signal (MeV L1708; 2.22 µM, 0 s after start): 0.01275
- BLI sensorgram signal (MeV L1708; 2.22 µM, 0.2 s after start): 0.01261
- BLI sensorgram signal (MeV L1708; 2.22 µM, 0.4 s after start): 0.01211
- BLI sensorgram signal (MeV L1708; 2.22 µM, 0.6 s after start): 0.01142
- BLI sensorgram signal (MeV L1708; 6.67 µM, 0 s after start): 0.009323
- BLI sensorgram signal (MeV L1708; 6.67 µM, 0.2 s after start): 0.01006
- BLI sensorgram signal (MeV L1708; 6.67 µM, 0.4 s after start): 0.01027
- BLI sensorgram signal (MeV L1708; 6.67 µM, 0.6 s after start): 0.01076
- S5 E BLI response versus compound conc. (MeV L1708; compound conc. 0.1 uM): 0.01921
- S5 F BLI response versus compound conc. (MeV L1708; compound conc. 0.1 uM): 0.02408
- S5 E BLI response versus compound conc. (MeV L1708; compound conc. 0.25 uM): 0.02429
- S5 F BLI response versus compound conc. (MeV L1708; compound conc. 0.25 uM): 0.0326
- S5 E BLI response versus compound conc. (MeV L1708; compound conc. 1 uM): 0.03022
- S5 F BLI response versus compound conc. (MeV L1708; compound conc. 1 uM): 0.03823
- S5 E BLI response versus compound conc. (MeV L1708; compound conc. 5 uM): 0.0316
- S5 F BLI response versus compound conc. (MeV L1708; compound conc. 5 uM): 0.04742
- S5 B BLI sensorgram response (MeV L1708; 100 nM, time 0 s): -0.001906
- S5 C BLI sensorgram response (MeV L1708; 100 nM, time 0 s): 0.005581
- S5 B BLI sensorgram response (MeV L1708; 100 nM, time 0.2 s): -0.001896
- S5 C BLI sensorgram response (MeV L1708; 100 nM, time 0.2 s): 0.006504
- S5 B BLI sensorgram response (MeV L1708; 100 nM, time 0.4 s): -0.001894
- S5 C BLI sensorgram response (MeV L1708; 100 nM, time 0.4 s): 0.007379
- S5 B BLI sensorgram response (MeV L1708; 100 nM, time 0.6 s): -0.001966
- S5 C BLI sensorgram response (MeV L1708; 100 nM, time 0.6 s): 0.008161
- S5 B BLI sensorgram response (MeV L1708; 250 nM, time 0 s): -0.005003
- S5 C BLI sensorgram response (MeV L1708; 250 nM, time 0 s): -0.0006808
- S5 B BLI sensorgram response (MeV L1708; 250 nM, time 0.2 s): -0.005217
- S5 C BLI sensorgram response (MeV L1708; 250 nM, time 0.2 s): -0.0001528
- S5 B BLI sensorgram response (MeV L1708; 250 nM, time 0.4 s): -0.005452
